The results in this text go back to patent publication US20140005165A1, “SUBSTITUTED 3-AZABICYCLO[3.1.0]HEXANE DERIVATIVES USEFUL AS CCR2 ANTAGONISTS” (priority 2011, published 2014).

As usually defined, the IC50 is the concentration needed to halve the response being measured. A lower IC50 goes with inhibition by little substance.

The target of the first experiment is T1, human CCR2 (Homo sapiens, UniProt P41597).
T1 construct: expressed in transfected cells; host or cells: Ba/F3 cells (membrane preparation)
T1 sequence (P41597 whole entry): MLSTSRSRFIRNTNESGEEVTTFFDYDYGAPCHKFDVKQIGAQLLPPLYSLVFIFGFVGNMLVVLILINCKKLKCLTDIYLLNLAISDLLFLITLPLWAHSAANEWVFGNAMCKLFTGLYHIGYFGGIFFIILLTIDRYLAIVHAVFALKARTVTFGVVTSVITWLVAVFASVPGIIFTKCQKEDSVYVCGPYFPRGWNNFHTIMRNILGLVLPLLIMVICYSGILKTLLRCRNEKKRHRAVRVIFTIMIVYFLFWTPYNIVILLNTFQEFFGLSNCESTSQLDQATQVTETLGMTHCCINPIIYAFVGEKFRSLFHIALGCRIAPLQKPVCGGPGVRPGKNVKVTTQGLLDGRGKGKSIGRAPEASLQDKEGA
Briefly: CCR2 Membrane Binding Assay (SPA radio-ligand binding, 125I-rhMCP-1). As to conditions: membranes from Ba/F3 cells transfected with human CCR2; 0.03 nM 125I-rhMCP-1; 4 h room temperature. The procedure:
The radio-ligand binding assay was done using scintillation proximity assay (SPA) technology. Briefly, membranes (1 μg per assay point) from Ba/F3 cells transfected with human CCR2, and wheat germ agglutinin-coated SPA beads (80 μg per point; Amersham, Arlington Heights, Ill.), were pre-incubated for 30 min at room temperature in CCR2 buffer (50 mM HEPES (pH=7.4), 10 mM MgCl2, 10 mM NaCl, 1 mM CaCL2, 0.1% BSA, 10 μg/ml Saponin). At this point pre-bound SPA bead, membrane complex was incubated at room temperature for 4 h with varying concentrations of punitive CCR2 antagonists (in 1% DMSO, final) and 0.03 nM ^125I-rhMCP-1 in CCR2Buffer (S.A. 2200 Ci/mmol, PerkinElmer Life and Analytical Science, Boston, Mass.; NEX332). Binding competition was measured using a 1450 Microbeta Trilux counter (Wallac, Gaithersburg, Md.). Binding constants (IC50 and slope) were calculated using GraphPad Prism software (GraphPad Software, Inc., La Jolla Calif.).
Compound `O=C(CNC(=O)[C@H]1[C@@H]2CN([C@H]3CC[C@@H](c4ccccn4)CC3)C[C@@H]21)Nc1cccc(C(F)(F)F)c1` [Compound 81] had an IC50 of 0.0018 µM.
`O=C(CNC(=O)[C@H]1[C@@H]2CN([C@H]3CC[C@@H](c4cccnc4)CC3)C[C@@H]21)Nc1cccc(C(F)(F)F)c1` [Compound 82] came in with an IC50 of 0.004 µM.
Still for that read-out and setting: to `O=C(CNC(=O)[C@H]1[C@@H]2CN([C@H]3CC[C@@H](c4ccncc4)CC3)C[C@@H]21)Nc1cccc(C(F)(F)F)c1` [Compound 83] belongs 0.011 µM; to `O=C(CNC(=O)[C@H]1[C@@H]2CN([C@H]3CC[C@@H](c4ccccc4)OC3)C[C@@H]21)Nc1cccc(C(F)(F)F)c1` [Compound 89], 0.0036 µM; to `O=C(CNC(=O)[C@H]1[C@@H]2CN([C@H]3CC[C@@H](c4ncccn4)CC3)C[C@@H]21)Nc1cccc(C(F)(F)F)c1` [Compound 90], 0.0076 µM.

Staying with this experiment, now noted: membranes from Ba/F3 cells transfected with human CCR2; 0.03 nM 125I-rhMCP-1; class symbols.
Consider `O=C1CCC(N2C[C@@H]3[C@H](C2)[C@H]3C(=O)NCC(=O)Nc2cccc(C(F)(F)F)c2)CC1` [Compound 29], for which the “IC50 (nM)” value is “D (compounds with IC50 values between 701 nM and 110 nM are designated as D class compounds)”.
Take `CC1CCC(N2C[C@@H]3[C@H](C2)[C@H]3C(=O)NCC(=O)Nc2cccc(C(F)(F)F)c2)CC1` (some centres unmarked) [Compound 30]: the IC50 is 0.051 to 0.2 µM.
The same measure, in the same setting: to `CC1CCCCC1N1C[C@@H]2[C@H](C1)[C@H]2C(=O)NCC(=O)Nc1cccc(C(F)(F)F)c1` (some centres unmarked) [Compound 31] belongs 0.051 to 0.2 µM; to `CC1CCCC(N2C[C@@H]3[C@H](C2)[C@H]3C(=O)NCC(=O)Nc2cccc(C(F)(F)F)c2)C1` (some centres unmarked) [Compound 32], 0.201 to 0.7 µM.
Still for that read-out and setting: to `O=C(CNC(=O)[C@H]1[C@@H]2CN(C3CCCCCC3)C[C@@H]21)Nc1cccc(C(F)(F)F)c1` [Compound 33] belongs 0.201 to 0.7 µM.
For `O=C(CNC(=O)[C@H]1[C@@H]2CN(C3CCC(O)CC3)C[C@@H]21)Nc1cccc(C(F)(F)F)c1` (some centres unmarked) [Compound 34], the IC50 lay within 0.201 to 0.7 µM.
Consider `O=C(CNC(=O)[C@H]1[C@@H]2CN(C3CCSCC3)C[C@@H]21)Nc1cccc(C(F)(F)F)c1` [Compound 35], for which the “IC50 (nM)” value is “D (compounds with IC50 values between 701 nM and 110 nM are designated as D class compounds)”.
For the compound `O=C(NC1CCc2ccc(F)cc2C1)[C@H]1[C@@H]2CN([C@H]3CC[C@@H](c4ccccc4)CC3)C[C@@H]21` (some centres unmarked) [Compound 36], the IC50 was in the range of 0.201 to 0.7 µM.
Regarding `CC=C1CCC(N2C[C@@H]3[C@H](C2)[C@H]3C(=O)NCC(=O)Nc2cccc(C(F)(F)F)c2)CC1` (some centres unmarked) [Compound 37], the “IC50 (nM)” value was “D (compounds with IC50 values between 701 nM and 110 nM are designated as D class compounds)”.
On to `CC1(C)CCCC(N2C[C@@H]3[C@H](C2)[C@H]3C(=O)NCC(=O)Nc2cccc(C(F)(F)F)c2)C1` (some centres unmarked) [Compound 38], for which the IC50 is 0.201 to 0.7 µM.
Turning to `COC1CCC(N2C[C@@H]3[C@H](C2)[C@H]3C(=O)NCC(=O)Nc2cccc(C(F)(F)F)c2)CC1` (some centres unmarked) [Compound 39], the “IC50 (nM)” value is “D (compounds with IC50 values between 701 nM and 110 nM are designated as D class compounds)”.
Compound `N#Cc1cccc(C2CCN(C(=O)[C@H]3[C@@H]4CN([C@H]5CC[C@@H](c6ccccc6)CC5)C[C@@H]43)C2)c1` (some centres unmarked) [Compound 40] registered an IC50 of 0.051 to 0.2 µM.
Still for that read-out and setting: to `N#Cc1ccc(C2CCN(C(=O)[C@H]3[C@@H]4CN([C@H]5CC[C@@H](c6ccccc6)CC5)C[C@@H]43)C2)cc1` (some centres unmarked) [Compound 41] belongs 0.201 to 0.7 µM; to `O=C(NCc1cccc(C(F)(F)F)c1)[C@H]1[C@@H]2CN([C@H]3CC[C@@H](c4ccccc4)CC3)C[C@@H]21` [Compound 42], 0.051 to 0.2 µM; to `O=C1CC2CC(N3C[C@@H]4[C@H](C3)[C@H]4C(=O)NCC(=O)Nc3cccc(C(F)(F)F)c3)CC2C1` (some centres unmarked) [Compound 44], 0.201 to 0.7 µM.
The same measure, in the same setting: to `CC(C)C1CCC(N2C[C@@H]3[C@H](C2)[C@H]3C(=O)NCC(=O)Nc2cccc(C(F)(F)F)c2)CC1` (some centres unmarked) [Compound 45] belongs 0.201 to 0.7 µM; to `O=C(NCCc1cccc(C(F)(F)F)c1)C1[C@H]2CN(C3CCCC3)C[C@@H]12` (some centres unmarked) [Compound 46], 0.201 to 0.7 µM.
Still for that read-out and setting: to `O=C(NCCc1cccc(C(F)(F)F)c1)[C@H]1[C@@H]2CN([C@H]3CC[C@@H](c4ccccc4)CC3)C[C@@H]21` [Compound 48] belongs below 0.05 µM; to `O=C(CNC(=O)[C@H]1[C@@H]2CN(C3CC(c4ccccc4)C3)C[C@@H]21)Nc1cccc(C(F)(F)F)c1` (some centres unmarked) [Compound 49], 0.051 to 0.2 µM.
Take `CC(CCc1ccccc1)N1C[C@@H]2[C@H](C1)[C@H]2C(=O)NCC(=O)Nc1cccc(C(F)(F)F)c1` (some centres unmarked) [Compound 50]: the “IC50 (nM)” value was “D (compounds with IC50 values between 701 nM and 110 nM are designated as D class compounds)”.
The same measure, in the same setting: to `CC(C)(C)C1CCC(N2C[C@@H]3[C@H](C2)[C@H]3C(=O)NCC(=O)Nc2cccc(C(F)(F)F)c2)CC1` (some centres unmarked) [Compound 54] belongs “D (compounds with IC50 values between 701 nM and 110 nM are designated as D class compounds)”.
Compound `CC(=O)NC1CCC(N2C[C@@H]3[C@H](C2)[C@H]3C(=O)NCC(=O)Nc2cccc(C(F)(F)F)c2)CC1` (some centres unmarked) [Compound 55] came in with an IC50 of 0.201 to 0.7 µM.
Compound `COC(=O)[C@H]1CC[C@@H](N2C[C@@H]3[C@H](C2)[C@H]3C(=O)NCC(=O)Nc2cccc(C(F)(F)F)c2)CC1` [Compound 57] returned an IC50 below 0.05 µM.
Same read-out and setting: to `COC(=O)[C@H]1CC[C@H](N2C[C@@H]3[C@H](C2)[C@H]3C(=O)NCC(=O)Nc2cccc(C(F)(F)F)c2)CC1` [Compound 58] belongs 0.201 to 0.7 µM; to `O=C([C@H]1[C@@H]2CN([C@H]3CC[C@@H](c4ccccc4)CC3)C[C@@H]21)N1CC(c2cccc(C(F)(F)F)c2)C1` [Compound 59], 0.201 to 0.7 µM.
Still for that read-out and setting: to `O=C([C@H]1[C@@H]2CN([C@H]3CC[C@@H](c4ccccc4)CC3)C[C@@H]21)N1CCc2ncc(C(F)(F)F)cc2C1` [Compound 61] belongs 0.201 to 0.7 µM; to `O=C(NCCCc1cccc(C(F)(F)F)c1)[C@H]1[C@@H]2CN([C@H]3CC[C@@H](c4ccccc4)CC3)C[C@@H]21` [Compound 62], 0.051 to 0.2 µM; to `O=C(CNC(=O)[C@H]1[C@@H]2CN(C3CC[C@H](c4ccccc4)C3)C[C@@H]21)Nc1cccc(C(F)(F)F)c1` (some centres unmarked) [Compound 64], 0.051 to 0.2 µM.
`O=C(CNC(=O)[C@H]1[C@@H]2CN(C3CC[C@@H](c4ccccc4)C3)C[C@@H]21)Nc1cccc(C(F)(F)F)c1` (some centres unmarked) [Compound 65] registered an IC50 of 0.201 to 0.7 µM.
Compound `O=C(NCCc1cc(F)cc(C(F)(F)F)c1)[C@H]1[C@@H]2CN([C@H]3CC[C@@H](c4ccccc4)CC3)C[C@@H]21` [Compound 67] displayed an IC50 of 0.051 to 0.2 µM.
The same measure, in the same setting: to `O=C(NC1Cc2ccc(Br)cc2C1)[C@H]1[C@@H]2CN([C@H]3CC[C@@H](c4ccccc4)CC3)C[C@@H]21` (some centres unmarked) [Compound 68] belongs 0.051 to 0.2 µM; to `O=C([C@H]1[C@@H]2CN([C@H]3CC[C@@H](c4ccccc4)CC3)C[C@@H]21)N1CCC(c2cccc(C(F)(F)F)c2)C1` (some centres unmarked) [Compound 70], below 0.05 µM.
Still for that read-out and setting: to `O=C([C@H]1[C@@H]2CN([C@H]3CC[C@@H](c4ccccc4)CC3)C[C@@H]21)N1CCC(c2cccc(C(F)(F)F)c2)C1` (some centres unmarked) [Compound 71] belongs below 0.05 µM; to `O=C([C@H]1[C@@H]2CN([C@H]3CC[C@@H](c4ccccc4)CC3)C[C@@H]21)N1CCC(c2ccc(C(F)(F)F)cc2)C1` (some centres unmarked) [Compound 73], 0.051 to 0.2 µM; to `O=C(NCC1(c2cccc(C(F)(F)F)c2)CC1)[C@H]1[C@@H]2CN([C@H]3CC[C@@H](c4ccccc4)CC3)C[C@@H]21` [Compound 74], 0.201 to 0.7 µM.
`O=C([C@H]1[C@@H]2CN([C@H]3CC[C@@H](c4ccccc4)CC3)C[C@@H]21)N1CC(Oc2ccc(C(F)(F)F)cc2)C1` [Compound 76]: the “IC50 (nM)” value was “D (compounds with IC50 values between 701 nM and 110 nM are designated as D class compounds)”.
The compound `O=C([C@H]1[C@@H]2CN([C@H]3CC[C@@H](c4ccccc4)CC3)C[C@@H]21)N1CC(Oc2ccc(Cl)c(Cl)c2)C1` [Compound 77] gave an IC50 of 0.051 to 0.2 µM.
On the same count and under the same terms, to `O=C(CNC(=O)[C@H]1[C@@H]2CN(C3CC3)C[C@@H]21)Nc1cccc(C(F)(F)F)c1` [Compound 78] belongs 0.201 to 0.7 µM.
In the case of `O=C(CNC(=O)[C@H]1[C@@H]2CN([C@H]3CC[C@H](c4ccccc4)CC3)C[C@@H]21)Nc1cccc(C(F)(F)F)c1` [Compound 79], the “IC50 (nM)” value is “D (compounds with IC50 values between 701 nM and 110 nM are designated as D class compounds)”.
On the same count and under the same terms, to `O=C(CNC(=O)[C@H]1[C@@H]2CN(C3CCCC(c4ccccc4)C3)C[C@@H]21)Nc1cccc(C(F)(F)F)c1` (some centres unmarked) [Compound 80] belongs “D (compounds with IC50 values between 701 nM and 110 nM are designated as D class compounds)”.
Compound `O=C(CNC(=O)[C@H]1[C@@H]2CN([C@H]3CC[C@H](c4ccccn4)CC3)C[C@@H]21)Nc1cccc(C(F)(F)F)c1` [Compound 84] came in with an IC50 of 0.201 to 0.7 µM.
The same measure, in the same setting: to `O=C(CNC(=O)[C@H]1[C@@H]2CN([C@H]3CC[C@H](c4ccncc4)CC3)C[C@@H]21)Nc1cccc(C(F)(F)F)c1` [Compound 85] belongs 0.201 to 0.7 µM.
